Laboratory results as given in ChEMBL document CHEMBL1143396, “Additivity in the analysis and design of HIV protease inhibitors” (J Med Chem, 2009).

Target: Human immunodeficiency virus type 1 protease (Human immunodeficiency virus 1, UniProt Q72874, Q7K)
Experiment: Inhibition of HIV1 protease Q7K mutant by FRET method

Cc1cccc(OS(=O)(=O)N(C[C@H](C)O)C[C@@H](O)[C@H](Cc2ccccc2)NC(=O)C[C@H]2C=CCC2)c1
Ki (read-out: Ki): 13.6 µM | Ki (read-out: pKi (converted)): 13.5 µM
